Laboratory results from paper PMC9970268 (Cancer Research Communications, 2022).

Experiments:
Cdc42 [1] = conditions: metastatic breast cancer cells; cited from earlier work
in vivo = conditions: rats and dogs
GLP toxicity studies = conditions: GLP data from a Contact Research Organization; rodents or dogs
GFP-HER2-BM cells [2] = assay: Apoptosis assay (Caspase-Glo3/7); format: cell-based, human; conditions: 500 nmol/L, 48 hours
Procedure: (§1) Apoptosis was measured using a Caspase-Glo3/7 Luminescence Assay Kit as per manufacturer's instructions (Promega, Corp.), as described previously ([23]). Briefly, Caspase-3/7 Glo reagent was added and incubated at room temperature for 60 minutes and caspase-3/7 activities were determined by detecting luminescence using Tecan Microplate Reader M100 (Tecan). Data were calculated as fold change from vehicle. (n = 3 biologic replicates: with three technical replicates each).

MDA-MB-231 cells = assay: Apoptosis assay (Caspase-Glo3/7); format: cell-based, human; conditions: 500 nmol/L, 48 hours
Procedure: as §1

MDA-MB-468 cells = assay: Apoptosis assay (Caspase-Glo3/7); format: cell-based, human; conditions: 500 nmol/L, 48 hours
Procedure: as §1

[3] = test system: MDA-MB-231, GFP-HER2-BM, and MDA-MB-468 cells; assay: Apoptosis assay (Caspase-Glo3/7), cell line not specified; format: cell-based, human; conditions: 500 nmol/L, 48 hours
Procedure: as §1

GFP-HER2-BM cells [4] = assay: Transwell directed migration of attached and detached cells; format: cell-based, human; conditions: treated 24 hr
Procedure: migration. Cells treated for 24hr and the attached and detached cell populations recovered and equal cell numbers were seeded on Transwells with […] and incubated for 7 hr.
Cells that migrated to the underside of the membrane were stained with propidium iodide and imaged at 20X. Representatives images are a result from two technical replicates and three […]
(1 picture or pasted object on this page, not shown here)

[5] = biological target: T1, Rac1(G15A) interaction with Vav2 (Homo sapiens, UniProt P63000, G15A); assay: Rac1 (G15A) pulldown assay, Vav2; format: binding; conditions: 250 nmol/L, 1 hour preincubation, MDA-MB-231 cell lysates
T1 construct: purchased Cell Biolabs; host or cells: GEF from MDA-MB-231 lysate
Procedure: MDA-MB-231 cells were lysed in 1% Triton X-100, 20 mmol/L HEPES, pH 7.4, 150 mmol/L NaCl, 5 mmol/L MgCl2, and protease inhibitors, and processed as described previously ([20]). Equal amounts of protein from cleared lysates were incubated for 1 hour at 4°C with glutathione-agarose beads conjugated to GST-Rac1 and GST-Cdc42(G15A) nucleotide-free mutant (Cell Biolabs) that were preincubated (for 1 hour) with vehicle or Rac/Cdc42 inhibitors, as indicated. The beads were washed, and pulldowns were immunoblotted for Vav2 or Ect2.

Rac1 [6] = biological target: T2, Rac1 (Homo sapiens, UniProt P63000); assay: Nucleotide association assay, catalyzed by Vav2; format: biochemical; parameters: purchased Cytoskeleton, Inc; conditions: 2 or 10 μmol/L, N-MAR-GTP
Procedure: (§2) The nucleotide loading on purified Rho GTPases was monitored using a fluorophore-based Rho GEF Exchange Assay Kit as per manufacturer's instructions (Cytoskeleton, Inc.). Drugs were diluted in exchange buffer and incubated with Rac1, Cdc42, or RhoA. […] After the initial five readings (T0), GEFs (Dbs or Vav2) or Ethylenediaminetetraacetic acid (EDTA) was added to stimulate exchange and readings were obtained every 30 seconds for at least 60 cycles.

Rac1 [7] = biological target: T2, Rac1; assay: Nucleotide association assay, induced by EDTA; conditions: read-out: inhibition of EDTA-induced loading of N-MAR-GTP on Rac1
Procedure: as §2
(§3) After initial five readings, the exchange factor Dbs was added to catalyze the loading of N-
(§4) B. 2µM Rac1 was incubated with 0 or 2 µM

RhoA = RhoA (Homo sapiens, UniProt P61586); assay: Nucleotide association assay, catalyzed by Dbs; conditions: 2 μmol/L, N-MAR-GTP
Chain of RhoA (P61586 whole entry): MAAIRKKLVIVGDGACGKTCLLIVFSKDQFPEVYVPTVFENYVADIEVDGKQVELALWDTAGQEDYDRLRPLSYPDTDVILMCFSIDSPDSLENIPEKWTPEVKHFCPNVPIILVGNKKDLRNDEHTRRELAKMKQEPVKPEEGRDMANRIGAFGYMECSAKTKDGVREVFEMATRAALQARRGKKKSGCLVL
Procedure: as §2, §3, §4

Cdc42 [8] = biological target: Cdc42 (Homo sapiens, UniProt P60953); assay: Cdc42 activation pulldown assay in MDA-MB-231 cells; conditions: MDA-MB-231, 24 hours
Chain of Cdc42 (Homo sapiens, UniProt P60953) (P60953 whole entry, the tested form may be a part): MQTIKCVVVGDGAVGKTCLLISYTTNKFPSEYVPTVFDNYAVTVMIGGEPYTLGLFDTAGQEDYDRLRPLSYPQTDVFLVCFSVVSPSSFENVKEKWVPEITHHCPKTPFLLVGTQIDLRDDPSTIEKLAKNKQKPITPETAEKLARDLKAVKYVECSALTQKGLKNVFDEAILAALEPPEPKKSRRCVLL
Procedure: (§5) Rac-GTP and Cdc42-GTP were detected using Rac Activity Assay or Cdc42 Activity Assay, as per manufacturer's instructions (Cell Signaling Technology). Briefly, total cell lysates were quantified and added equally to PAK-p21–binding domain conjugated Sepharose beads. After 1 hour of incubation, beads were washed, bound proteins extracted in sample buffer, and Rac1-GTP and Cdc42-GTP detected by Western blot analysis using Rac1, Rac1b, or Cdc42 antibody. (n = 3 biological replicates).
(§6) Total cell lysates or pulldowns were Western blotted using routine procedures. The primary antibodies used were anti-Rac (Cell Signaling Technology), anti-Cdc42 (Abcam), anti-PAK1+PAK2+PAK3 (Cell Signaling Technology), anti-pPAK1 (T423)/PAK2 (T402; Abcam), anti-PAK1 + PAK2 + PAK3 (phospho T423; Abcam), Rac1B, and β-actin (Millipore-Sigma).

Rac1 [9] = biological target: T2, Rac1; assay: Rac activation pulldown assay (PAK p21-binding domain); conditions: GFP-HER2-BM cells, 250 nmol/L, 24 hours
Procedure: as §5, §6

CCn1c2ccccc2c2cc(-n3nncc3-c3ccccc3)ccc21 [MBQ-167]
IC50 (Cdc42 [1]): 78 nM | NOAEL (in vivo): 1000 mg/kg | dose with no apparent toxicity (GLP toxicity studies): up to 1,000 mg/kg

CCn1c2ccccc2c2cc(-n3nncc3-c3cccc(OC)c3)ccc21 [MBQ-168]
Caspase-3/7 activity (GFP-HER2-BM cells [2]): significantly increased Caspase-3/7 activity | Caspase-3/7 activity (MDA-MB-231 cells): significantly increased Caspase-3/7 activity | Caspase-3/7 activity (MDA-MB-468 cells): significantly increased Caspase-3/7 activity | caspase-3/7 activity compared with the vehicle [3]: three to five times | directed migration (GFP-HER2-BM cells [4]): both cell types were inhibited | Rac1(G15A) interaction with Vav2 [5]: no effect | inhibition of GTP loading on Rac1 catalyzed by Vav2 (Rac1 [6]): ≥ 30% | inhibition at 2 µM (Rac1 [7]): ~50% | Dbs-catalyzed exchange of RhoA (RhoA): did not affect | Cdc42 activity (Cdc42 [8]): reduced in a dose-dependent manner | Rac1-GTP (Rac1 [9]; attached and detached cell population): complete depletion | reduction of Rac1 activation (Rac1.GTP) (Rac1 [9]; attached cell population): approximately 100% | decrease in Rac1 expression (Rac1 [9]; detached cell population): approximately 100%
